Source: ChEMBL document CHEMBL1158152, “(D)-2-tert-Butoxycarbonylamino-5,5-difluoro-5-phenyl-pentanoic acid: synthesis and incorporation into the growth hormone secretagogues” (Bioorg Med Chem Lett, 2008)

Legend:
[1] = target: Growth hormone secretagogue receptor type 1 (Homo sapiens, UniProt Q92847); assay: Agonist activity at GHS receptor; type: functional
[2] = Volume of distribution at steady state in rat at 5 umole/kg, iv; type: ADME, organism-based; conditions: in vivo, read-out: Vdss
[3] = Oral bioavailability in rat at 15 umole/kg; type: ADME, organism-based; conditions: in vivo
Rattus norvegicus = assay: Increase in GH level in acute anesthetized rat at 1.74 umol/kg, iv after 15min relative to control; type: functional
[4] = Cmax in rat at 15 umole/kg, po; type: ADME, organism-based; set-up: route oral; conditions: in vivo
[5] = Tmax in rat at 15 umole/kg, po; type: ADME, organism-based; conditions: in vivo
[6] = AUC in rat at 5 umole/kg, iv; type: ADME, organism-based; conditions: plasma
[7] = AUC in rat at 15 umole/kg, po; type: ADME, organism-based; conditions: plasma
[8] = Half life in rat at 5 umole/kg, iv; type: ADME, organism-based; conditions: in vivo
[9] = Mean residence time in rat at 5 umole/kg, iv; type: ADME, organism-based; conditions: in vivo
[10] = Clearance in rat at 5 umole/kg, iv; type: ADME, organism-based; conditions: in vivo
[11] = Clearance in rat at 10 umole/kg, iv; type: ADME, organism-based; conditions: in vivo
[12] = Volume of distribution at steady state in rat at 10 umole/kg, iv; type: ADME, organism-based; conditions: in vivo, read-out: Vdss
[13] = Oral bioavailability in rat at 10 umole/kg; type: ADME, organism-based; conditions: in vivo
[14] = Cmax in rat at 10 umole/kg, po; type: ADME, organism-based; set-up: route oral; conditions: in vivo
[15] = Tmax in rat at 10 umole/kg, po; type: ADME, organism-based; conditions: in vivo
[16] = AUC in rat at 10 umole/kg, iv; type: ADME, organism-based; conditions: plasma
[17] = AUC in rat at 10 umole/kg, po; type: ADME, organism-based; conditions: plasma
[18] = Half life in rat at 10 umole/kg, iv; type: ADME, organism-based; conditions: in vivo, read-out: AUC (converted)
[19] = Mean residence time in rat at 10 umole/kg, iv; type: ADME, organism-based; conditions: in vivo

Growth hormone secretagogue receptor type 1, sequence (Q92847 whole entry): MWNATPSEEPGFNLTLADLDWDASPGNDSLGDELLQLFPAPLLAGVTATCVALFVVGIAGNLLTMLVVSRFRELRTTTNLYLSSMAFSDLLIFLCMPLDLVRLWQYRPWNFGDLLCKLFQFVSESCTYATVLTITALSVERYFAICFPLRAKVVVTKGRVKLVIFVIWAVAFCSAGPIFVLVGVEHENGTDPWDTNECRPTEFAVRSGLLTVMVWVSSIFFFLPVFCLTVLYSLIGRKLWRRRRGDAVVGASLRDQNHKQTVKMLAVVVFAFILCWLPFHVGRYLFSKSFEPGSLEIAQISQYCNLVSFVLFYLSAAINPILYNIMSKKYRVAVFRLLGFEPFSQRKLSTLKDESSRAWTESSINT

Row | Compound | EC50 [1] [nM] | Vd [2] [L/kg] | bioavailability [3] [%] | Activity (Rattus norvegicus) [%] | Cmax [4] [nM] | Tmax [5] [h] | AUC [6] [µM·h] | AUC [7] [µM·h] | half-life [8] [h] | MRT [9] [h] | clearance [10] [mL/min/kg] | clearance [11] [mL/min/kg] | Vd [12] [L/kg] | bioavailability [13] [%] | Cmax [14] [nM] | Tmax [15] [h] | AUC [16] [µM·h] | AUC [17] [µM·h] | half-life [18] [h] | MRT [19] [h]
1 | CC(C)(N)C(=O)N[C@H](CCC(F)(F)c1ccccc1)c1nnnn1CCC#N | 0.9 | – | – | – | – | – | – | – | – | – | – | – | – | – | – | – | – | – | – | –
2 | CC(C)(N)C(=O)N[C@H](COCc1ccccc1)c1nnnn1CCOC(=O)NCCCCO | – | 6.4 | 9.2 | 750 | 68 | 0.7 | 0.401 | 0.11 | 0.7 | 0.5 | 213 | – | – | – | – | – | – | – | – | –
3 | CC(C)(N)C(=O)N[C@H](CCC(F)(F)c1ccccc1)c1nnnn1CCOC(=O)NCCCCO | 0.27 | – | – | 1934 | – | – | – | – | – | – | – | 183 | 16 | 26 | 166 | 1.6 | 0.901 | 0.239 | 2.4 | 1.4
